According to patent publication EP4682145A1, “BENZOHETEROCYCLIC COMPOUND, AND PREPARATION METHOD THEREFOR AND USE THEREOF” (Cascade Pharmaceuticals, Inc., priority 2023, dated 2024):

Molecular target: T1, human FFAR1 (GPR40) (Homo sapiens, UniProt O14842)
T1 construct: Flag; expressed in transfected cells; host or cells: HEK293T
Test: NFAT-RE-based reporter gene activity assay (Dual-Glo luciferase) for GPR40 agonistic activity in co-transfected HEK293T cells
Format: cell-based
Conditions: 4-hour treatment; for Efficacy (%): class symbols
How it was run: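 Agonism read as NFAT-RE-driven firefly luciferase over Renilla control (Dual-Glo) after 4 h compound exposure, top concentration 1 µM, 10 half-log steps.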

T1 sequence (O14842 whole entry): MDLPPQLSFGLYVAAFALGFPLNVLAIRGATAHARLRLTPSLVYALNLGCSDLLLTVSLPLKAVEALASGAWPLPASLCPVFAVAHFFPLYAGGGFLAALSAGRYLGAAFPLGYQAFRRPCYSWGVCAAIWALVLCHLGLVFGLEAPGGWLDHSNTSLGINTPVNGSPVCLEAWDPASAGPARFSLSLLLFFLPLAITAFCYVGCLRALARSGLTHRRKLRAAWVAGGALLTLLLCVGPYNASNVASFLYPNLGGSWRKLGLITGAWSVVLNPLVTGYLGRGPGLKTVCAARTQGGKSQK

Compound	EC50 [nM]	Efficacy (%)
COc1cccc(N2CCC(c3oc4cc(C(CC(=O)O)C5CC5)ccc4c3C(=O)Nc3cc(C(C)(C)C)on3)CC2)c1 (stereo not shown) [Compound 300]	100 to 500	†† (150 ≥ Efficacy (%) > 100)
O=C(O)C[C@H](c1ccc2c(C(=O)Nc3cc(F)ccc3Br)c(C3CCN(c4ccc5c(c4)OCO5)CC3)oc2c1)C1CC1 [Compound 334]	≤ 10	†† (150 ≥ Efficacy (%) > 100)
COc1ccc(F)c(N2CCC(c3oc4cc(C(CC(=O)O)C5CC5)ccc4c3-c3cccc(NCC(C)(C)C)c3)CC2)c1 (stereo not shown) [Compound 188]	100 to 500	†† (150 ≥ Efficacy (%) > 100)
CCCCC[C@H]1CC[C@H](c2nnc(-c3c(C4CCN(c5cccc(OC)c5)CC4)oc4cc(C(CC(=O)O)C5CC5)ccc34)o2)CC1 (relative stereo) [Compound 138]	100 to 500	†† (150 ≥ Efficacy (%) > 100)
COc1cccc(N2CCC(c3oc4cc(C(CC(=O)O)C5CC5)ccc4c3-c3nnc(-c4ccccc4)o3)CC2)c1 (stereo not shown) [Compound 133]	100 to 500	† (100 ≥ Efficacy (%) > 50)
COc1ccc(F)c(N2CCC(c3oc4cc(C(CC(=O)O)C5CC5)ccc4c3-c3cccc(C#N)c3)CC2)c1 (stereo not shown) [Compound 174]	100 to 500	†† (150 ≥ Efficacy (%) > 100)
COc1cccc(N2CCC(c3oc4cc([C@@H](CC(=O)O)C5CC5)ccc4c3C(=O)Nc3cc(C)ccc3Br)CC2)c1 [Compound 273]	≤ 10	†† (150 ≥ Efficacy (%) > 100)
CC(C)(C)n1cc(-c2c(C3CCN(c4cccc(C5CC5)c4)CC3)oc3cc(C(CC(=O)O)C4CC4)ccc23)cn1 (stereo not shown) [Compound 45]	100 to 500	†† (150 ≥ Efficacy (%) > 100)
COc1cccc(N2CCC(c3oc4cc(C(CC(=O)O)C5CC5)ccc4c3C(=O)NC34CC5CC(CC(C5)C3)C4)CC2)c1 (stereo not shown) [Compound 349]	100 to 500	†† (150 ≥ Efficacy (%) > 100)
CCc1cccc(NC(=O)c2c(C3CCN(c4cccc(OC)c4)CC3)oc3cc(C(CC(=O)O)C4CC4)ccc23)c1 (stereo not shown) [Compound 243]	> 500	†† (150 ≥ Efficacy (%) > 100)
COc1cccc(N2CCC(c3oc4cc([C@@H](CC(=O)O)C5CC5)ccc4c3C(OCC(C)C)c3cccc(F)c3)CC2)c1 (stereo partly shown) [Compound 430]	100 to 500	††† (Efficacy (%) > 150)
COc1ccc(F)c(N2CCC(c3oc4cc(C(CC(=O)O)C5CC5)ccc4c3C(=O)NCC(C)C)CC2)c1 (stereo not shown) [Compound 310]	100 to 500	†† (150 ≥ Efficacy (%) > 100)
CC(C)(C)c1nnc(-c2c(C3CCN(c4ccc5c(c4)OCO5)CC3)oc3cc([C@@H](CC(=O)O)C4CC4)ccc23)o1 [Compound 143]	10 to 100	†† (150 ≥ Efficacy (%) > 100)
CC(C)(C)c1cccc(-c2c(C3CCN(c4cccc(F)c4)CC3)oc3cc(C(CC(=O)O)C4CC4)ccc23)c1 (stereo not shown) [Compound 8]	> 500	†† (150 ≥ Efficacy (%) > 100)
COc1cccc(N2CCC(c3oc4cc([C@@H](CC(=O)O)C5CC5)ccc4c3-c3nnc(C(C)(C)C)o3)CC2)c1F [Compound 141]	≤ 10	††† (Efficacy (%) > 150)
COc1cccc(N2CCC(c3oc4cc(C(CC(=O)O)C5CC5)ccc4c3C(=CCC(C)C)c3ccccc3)CC2)c1 (stereo not shown) [Compound 377]	10 to 100	†† (150 ≥ Efficacy (%) > 100)
CC(C)=CCc1c(C2CCN(c3ccc4c(c3)OCO4)CC2)oc2cc([C@@H](CC(=O)O)C3CC3)ccc12 [Compound 376]	10 to 100	†† (150 ≥ Efficacy (%) > 100)
COc1ccc(F)c(N2CCC(c3oc4cc([C@H](C5CC5)C(F)C(=O)O)ccc4c3-c3cccc(C(C)(C)C)c3)CC2)c1 (stereo partly shown) [Compound 219]	10 to 100	† (100 ≥ Efficacy (%) > 50)
COc1cccc(N2CCC(c3oc4cc(C(CC(=O)O)C5CC5)ccc4c3C(=O)Nc3cccc(C#N)c3)CC2)c1 (stereo not shown) [Compound 249]	100 to 500	†† (150 ≥ Efficacy (%) > 100)
COc1ccc(F)c(N2CCC(c3oc4cc([C@@H](CC(=O)O)C5CC5)ccc4c3-c3ccc(C(=O)NCC(C)(C)C)cc3)CC2)c1 [Compound 198]	100 to 500	†† (150 ≥ Efficacy (%) > 100)
COC(=O)C(C)(C)n1cc(-c2c(C3CCN(c4cccc(OC)c4)CC3)oc3cc(C(CC(=O)O)C4CC4)ccc23)cn1 (stereo not shown) [Compound 132]	100 to 500	††† (Efficacy (%) > 150)
COc1cccc(N2CCC(c3oc4cc([C@@H](CC(=O)O)C5CC5)ccc4c3C(=O)Nc3cc(-c4ccccc4)ccc3Cl)CC2)c1 [Compound 280]	100 to 500	†† (150 ≥ Efficacy (%) > 100)
COc1ccc(F)c(N2CCC(c3oc4cc(C(CC(=O)O)C5CC5)ccc4c3CCC(C)(C)C)CC2)c1 (stereo not shown) [Compound 388]	100 to 500	†† (150 ≥ Efficacy (%) > 100)
COc1ccc(F)c(N2CCC(c3oc4cc(C(CC(=O)O)C5CC5)ccc4c3-c3cccc(Cl)c3)CC2)c1 (stereo not shown) [Compound 171]	100 to 500	†† (150 ≥ Efficacy (%) > 100)

Compound	EC50 [nM]	Efficacy (%)
COc1cccc(N2CCC(c3oc4cc([C@@H](CC(=O)O)C5CC5)ccc4c3C(=O)Nc3cc(F)ccc3Cl)CC2)c1 [Compound 266]	< 10	††††
COc1cccc(N2CCC(c3oc4cc([C@@H](CC(=O)O)C5CC5)ccc4c3C(=O)Nc3cc(C)ccc3Cl)CC2)c1 [Compound 265]	≤ 10	††† (Efficacy (%) > 150)
CCCCC(C)(C)c1nnc(-c2c(C3CCN(c4cccc(OC)c4)CC3)oc3cc(C(CC(=O)O)C4CC4)ccc23)o1 (stereo not shown) [Compound 130]	10 to 100	†† (150 ≥ Efficacy (%) > 100)
COc1cccc(N2CCC(c3oc4cc(C(CC(=O)O)C5CC5)ccc4c3C(=O)Nc3c(F)cccc3C(F)(F)F)CC2)c1 (stereo not shown) [Compound 263]	100 to 500	†† (150 ≥ Efficacy (%) > 100)
COc1cccc(N2CCC(c3oc4cc(C(CC(=O)O)C5CC5)ccc4c3-c3ncc(C(C)C)s3)CC2)c1 (stereo not shown) [Compound 111]	10 to 100	††† (Efficacy (%) > 150)
COc1cccc(N2CCC(c3oc4cc(C(CC(=O)O)C5CC5)ccc4c3C3O[C@@H](C)[C@H](C)O3)CC2)c1 (stereo partly shown) [Compound 400]	100 to 500	† (100 ≥ Efficacy (%) > 50)
COc1cccc(N2CCC(c3oc4cc(C(CC(=O)O)C5CC5)ccc4c3C(=O)NC3CCC(C)(C)CC3)CC2)c1 (stereo not shown) [Compound 348]	100 to 500	†† (150 ≥ Efficacy (%) > 100)
COc1ccc(F)c(N2CCC(c3oc4cc(C(CC(=O)O)C5CC5)ccc4c3-c3ccc(NC(C)C)cc3)CC2)c1 (stereo not shown) [Compound 184]	100 to 500	† (100 ≥ Efficacy (%) > 50)
CC(C)(C)c1ccc(-c2c(C3CCN(c4cccc(S(C)(=O)=O)c4)CC3)oc3cc(C(CC(=O)O)C4CC4)ccc23)cc1 (stereo not shown) [Compound 27]	100 to 500	† (100 ≥ Efficacy (%) > 50)
CNC(=O)c1ccc(OC)cc1N1CCC(c2oc3cc(C(CC(=O)O)C4CC4)ccc3c2-c2cnn(C(C)(C)C)c2)CC1 (stereo not shown) [Compound 91]	100 to 500	† (100 ≥ Efficacy (%) > 50)
COc1cccc(N2CCC(c3oc4cc([C@@H](CC(=O)O)C5CC5)ccc4c3C(=O)Nc3cc(N4CCOCC4)ccc3Cl)CC2)c1 [Compound 285]	≤ 10	†† (150 ≥ Efficacy (%) > 100)
CC(C)(C)c1cccc(-c2c(C3CCN(c4ccccc4Cl)CC3)oc3cc(C(CC(=O)O)C4CC4)ccc23)c1 (stereo not shown) [Compound 22]	100 to 500	†† (150 ≥ Efficacy (%) > 100)
COc1cccc(N2CCC(c3oc4cc([C@@H](CC(=O)O)C5CC5)ccc4c3C/C=C/C3CC3)CC2)c1 [Compound 375]	100 to 500	†† (150 ≥ Efficacy (%) > 100)
COc1cccc(NC(=O)c2c(C3CCN(c4cccc(OC)c4)CC3)oc3cc(C(CC(=O)O)C4CC4)ccc23)c1 (stereo not shown) [Compound 245]	100 to 500	†† (150 ≥ Efficacy (%) > 100)
COc1ccc(F)c(N2CCC(c3oc4cc(C(CC(=O)O)C5CC5)ccc4c3-c3cccc(C(F)(F)F)c3)CC2)c1 (stereo not shown) [Compound 172]	100 to 500	† (100 ≥ Efficacy (%) > 50)
CCc1ccc(Cl)c(NC(=O)c2c(C3CCN(c4cc(OC)ccc4F)CC3)oc3cc([C@@H](CC(=O)O)C4CC4)ccc23)c1 [Compound 339]	≤ 10	†† (150 ≥ Efficacy (%) > 100)
COc1cccc(N2CCC(c3oc4cc(C(CC(=O)O)C5CC5)ccc4c3C(=O)Nc3nc(C(C)(C)C)cs3)CC2)c1 (stereo not shown) [Compound 298]	100 to 500	†† (150 ≥ Efficacy (%) > 100)
COc1ccc(F)c(N2CCC(c3oc4cc(C(CC(=O)O)C5CC5)ccc4c3C(=O)NCCC(C)(C)C)CC2)c1 (stereo not shown) [Compound 307]	100 to 500	†† (150 ≥ Efficacy (%) > 100)
COc1ccc(F)c(N2CCC(c3oc4cc(C(CC(=O)O)C5CC5)ccc4c3C(=O)NCC3CC3)CC2)c1 (stereo not shown) [Compound 309]	100 to 500	†† (150 ≥ Efficacy (%) > 100)
COc1cccc(N2CCC(c3oc4cc(C(CC(=O)O)C5CC5)ccc4c3C(=O)NC3C4CC5CC(C4)CC3C5)CC2)c1 (stereo not shown) [Compound 352]	10 to 100	†† (150 ≥ Efficacy (%) > 100)
CC(C)(C)c1cccc(-c2c(C3CCN(c4ccccc4F)CC3)oc3cc(C(CC(=O)O)C4CC4)ccc23)c1 (stereo not shown) [Compound 9]	100 to 500	†† (150 ≥ Efficacy (%) > 100)
COc1cccc(N2CCC(c3oc4cc(C(CC(=O)O)C5CC5)ccc4c3-c3cnn(C(C)(C)C)c3)CC2)c1F (stereo not shown) [Compound 86]	10 to 100	††† (Efficacy (%) > 150)
COc1cccc(N2CCC(c3oc4cc([C@@H](CC(=O)O)C5CC5)ccc4c3C(C)CCC(C)C)CC2)c1 (stereo partly shown) [Compound 385]	10 to 100	†† (150 ≥ Efficacy (%) > 100)
